Experimental data published in ChEMBL document CHEMBL4304811, “Development of a Water-Soluble Indolylmaleimide Derivative IM-93 Showing Dual Inhibition of Ferroptosis and NETosis” (ACS Med Chem Lett, 2019).
The source made the active and inactive calls. The rule behind the calls is not given here.

Key:
[1] = molecular target: Tyrosine-protein kinase Tec (Homo sapiens) (UniProt P42680); assay: Binding affinity to wild-type human partial length TEC (L341 to D620 residues) expressed in bacterial expression system assessed as residual binding level at 10 uM by Kinomescan method relative to control
[2] = molecular target: Dual specificity mitogen-activated protein kinase kinase 1 (Homo sapiens) (UniProt Q02750); assay: Binding affinity to wild-type human full length MEK1 (M1 to V393 residues) expressed in mammalian expression system assessed as residual binding level at 10 uM by Kinomescan method relative to control
[3] = Stability of compound in D2O at 0.012 mmol followed by H2O2 addition measured after 2 hrs by 1H-NMR spectroscopy; assay type: physicochemical
[4] = molecular target: Serine/threonine-protein kinase 38-like (Homo sapiens) (UniProt Q9Y2H1); assay: Binding affinity to wild-type human partial length NDR2 (N34 to E447 residues) expressed in bacterial expression system assessed as residual binding level at 10 uM by Kinomescan method relative to control
[5] = molecular target: Ribosomal protein S6 kinase alpha-4 (Homo sapiens) (UniProt O75676); assay: Binding affinity to wild-type human partial length C-terminal RPS6KA4 kinase domain 2 (M375 to T705 residues) expressed in mammalian expression system assessed as residual binding level at 10 uM by Kinomescan method relative to control
[6] = test system: Epidermal growth factor receptor (Homo sapiens), P00533 [G719S]; assay: Binding affinity to human partial length EGFR G719S mutant (R669 to V1011 residues) expressed in bacterial expression system assessed as residual binding level at 10 uM by Kinomescan method relative to control
[7] = molecular target: Dual specificity mitogen-activated protein kinase kinase 2 (Homo sapiens) (UniProt P36507); assay: Binding affinity to wild-type human full length MEK2 (M1 to V400 residues) expressed in mammalian expression system assessed as residual binding level at 10 uM by Kinomescan method relative to control
[8] = test system: Jurkat; assay: Cytoprotection against fas ligand/cycloheximide/Z-VAD-fmk-induced necroptosis in human Jurkat cells at 4 to 25 uM measured after 20 hrs by WST-8 assay; assay type: functional, cell-based
[9] = molecular target: Tyrosine-protein kinase Lyn (Homo sapiens) (UniProt P07948); assay: Binding affinity to wild-type human partial length LYN (C219 to Q511 residues) expressed in bacterial expression system assessed as residual binding level at 10 uM by Kinomescan method relative to control
[10] = molecular target: Serine/threonine-protein kinase MARK1 (Homo sapiens) (UniProt Q9P0L2); assay: Binding affinity to wild-type human partial length MARK1 (Q30 to T341 residues) expressed in bacterial expression system assessed as residual binding level at 10 uM by Kinomescan method relative to control
[11] = molecular target: Protein-arginine deiminase type-4 (Homo sapiens) (UniProt Q9UM07); assay: Inhibition of recombinant human PAD4 at 200 uM using N-alpha-benzoyl-L-arginine ethyl ester as substrate by fluorescence based analysis
[12] = molecular target: Calcium/calmodulin-dependent protein kinase type 1D (Homo sapiens) (UniProt Q8IU85); assay: Binding affinity to wild-type human partial length CAMK1D (M1 to K299 residues) expressed in bacterial expression system assessed as residual binding level at 10 uM by Kinomescan method relative to control
[13] = molecular target: Serine/threonine-protein kinase 32B (Homo sapiens) (UniProt Q9NY57); assay: Binding affinity to wild-type human full length YANK2 (M1 to S414 residues) expressed in bacterial expression system assessed as residual binding level at 10 uM by Kinomescan method relative to control
[14] = molecular target: Dual serine/threonine and tyrosine protein kinase (Homo sapiens) (UniProt Q6XUX3); assay: Binding affinity to wild-type human full length RIPK5 (M1 to T929 residues) expressed in mammalian expression system assessed as residual binding level at 10 uM by Kinomescan method relative to control
[15] = molecular target: Dual specificity mitogen-activated protein kinase kinase 4 (Homo sapiens) (UniProt P45985); assay: Binding affinity to wild-type human partial length MEK4 (S84 to D399 residues) expressed in mammalian expression system assessed as residual binding level at 10 uM by Kinomescan method relative to control
[16] = molecular target: Dual specificity tyrosine-phosphorylation-regulated kinase 1A (Homo sapiens) (UniProt Q13627); assay: Binding affinity to wild-type human partial length DYRK1A (H129 to S509 residues) expressed in mammalian expression system assessed as residual binding level at 10 uM by Kinomescan method relative to control
[17] = molecular target: Cyclin-dependent kinase 5 (Homo sapiens) (UniProt Q00535); assay: Binding affinity to wild-type human full length CDK5 (M1 to P292 residues) expressed in bacterial expression system assessed as residual binding level at 10 uM by Kinomescan method relative to control
[18] = test system: Receptor-type tyrosine-protein kinase FLT3 (Homo sapiens), P36888 [R834Q]; assay: Binding affinity to human partial length FLT3 R834Q mutant (V592 to Y969 residues) expressed in mammalian expression system assessed as residual binding level at 10 uM by Kinomescan method relative to control
[19] = molecular target: Dual specificity mitogen-activated protein kinase kinase 3 (Homo sapiens) (UniProt P46734); assay: Binding affinity to wild-type human full length MEK3 (M1 to S318 residues) expressed in mammalian expression system assessed as residual binding level at 10 uM by Kinomescan method relative to control
[20] = molecular target: Ephrin type-A receptor 3 (Homo sapiens) (UniProt P29320); assay: Binding affinity to wild-type human partial length EPHA3 (D604 to K889 residues) expressed in bacterial expression system assessed as residual binding level at 10 uM by Kinomescan method relative to control
[21] = molecular target: MAP kinase-interacting serine/threonine-protein kinase 2 (Homo sapiens) (UniProt Q9HBH9); assay: Binding affinity to wild-type human partial length MKNK2 (G63 to S388 residues) expressed in mammalian expression system assessed as residual binding level at 10 uM by Kinomescan method relative to control
[22] = molecular target: Mitogen-activated protein kinase 9 (Homo sapiens) (UniProt P45984); assay: Binding affinity to wild-type human full length JNK2 (M1 to Q382 residues) expressed in mammalian expression system assessed as residual binding level at 10 uM by Kinomescan method relative to control
[23] = molecular target: Casein kinase I isoform gamma-2 (Homo sapiens) (UniProt P78368); assay: Binding affinity to wild-type human full length CSNK1G2 (M1 to K415 residues) expressed in bacterial expression system assessed as residual binding level at 10 uM by Kinomescan method relative to control
[24] = molecular target: Calcium-dependent protein kinase 1 (Plasmodium falciparum) (UniProt P62344); assay: Binding affinity to wild-type Plasmodium falciparum full length CDPK1 (M1 to S524 residues) expressed in mammalian expression system assessed as residual binding level at 10 uM by Kinomescan method relative to control
[25] = molecular target: Receptor-type tyrosine-protein kinase FLT3 (Homo sapiens) (UniProt P36888); assay: Binding affinity to wild-type human partial length autoinhibited FLT3 (H564 to Y969 residues) expressed in mammalian expression system assessed as residual binding level at 10 uM by Kinomescan method relative to control

Chain of Serine/threonine-protein kinase MARK1 (Homo sapiens) (Q9P0L2 whole entry, looked up, the tested form may be a part): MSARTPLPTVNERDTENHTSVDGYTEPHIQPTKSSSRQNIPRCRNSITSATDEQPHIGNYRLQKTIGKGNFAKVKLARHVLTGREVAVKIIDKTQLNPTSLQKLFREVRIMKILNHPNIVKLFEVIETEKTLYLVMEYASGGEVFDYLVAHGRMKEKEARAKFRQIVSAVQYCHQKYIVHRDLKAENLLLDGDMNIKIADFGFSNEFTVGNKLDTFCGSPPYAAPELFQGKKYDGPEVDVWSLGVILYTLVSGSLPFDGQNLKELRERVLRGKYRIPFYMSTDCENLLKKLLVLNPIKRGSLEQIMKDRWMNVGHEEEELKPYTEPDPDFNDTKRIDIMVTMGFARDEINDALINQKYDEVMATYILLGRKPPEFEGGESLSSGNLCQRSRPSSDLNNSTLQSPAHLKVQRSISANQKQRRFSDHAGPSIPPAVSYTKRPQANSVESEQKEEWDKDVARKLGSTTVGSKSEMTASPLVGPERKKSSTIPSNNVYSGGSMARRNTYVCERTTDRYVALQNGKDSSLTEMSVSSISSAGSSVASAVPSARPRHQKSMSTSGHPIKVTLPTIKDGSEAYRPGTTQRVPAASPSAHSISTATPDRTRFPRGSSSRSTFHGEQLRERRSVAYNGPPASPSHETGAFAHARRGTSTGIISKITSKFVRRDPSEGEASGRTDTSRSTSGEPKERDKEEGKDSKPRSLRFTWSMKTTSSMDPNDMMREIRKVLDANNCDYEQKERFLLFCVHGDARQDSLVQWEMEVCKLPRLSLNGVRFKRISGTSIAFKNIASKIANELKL
Chain of Serine/threonine-protein kinase 32B (Homo sapiens) (Q9NY57 whole entry, the tested form may be a part): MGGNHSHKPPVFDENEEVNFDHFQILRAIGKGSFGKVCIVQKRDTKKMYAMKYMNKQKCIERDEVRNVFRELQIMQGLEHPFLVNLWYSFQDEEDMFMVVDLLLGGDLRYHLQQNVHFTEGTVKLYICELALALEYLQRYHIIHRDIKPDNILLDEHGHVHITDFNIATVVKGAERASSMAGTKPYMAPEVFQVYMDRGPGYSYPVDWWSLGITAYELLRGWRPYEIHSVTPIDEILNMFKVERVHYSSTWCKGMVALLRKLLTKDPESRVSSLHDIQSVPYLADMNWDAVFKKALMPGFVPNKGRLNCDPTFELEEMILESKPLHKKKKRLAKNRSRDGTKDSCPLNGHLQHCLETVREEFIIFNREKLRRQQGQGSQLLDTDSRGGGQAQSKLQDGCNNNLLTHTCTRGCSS
Chain of Dual specificity mitogen-activated protein kinase kinase 1 (Homo sapiens) (Q02750 whole entry, the tested form may be a part): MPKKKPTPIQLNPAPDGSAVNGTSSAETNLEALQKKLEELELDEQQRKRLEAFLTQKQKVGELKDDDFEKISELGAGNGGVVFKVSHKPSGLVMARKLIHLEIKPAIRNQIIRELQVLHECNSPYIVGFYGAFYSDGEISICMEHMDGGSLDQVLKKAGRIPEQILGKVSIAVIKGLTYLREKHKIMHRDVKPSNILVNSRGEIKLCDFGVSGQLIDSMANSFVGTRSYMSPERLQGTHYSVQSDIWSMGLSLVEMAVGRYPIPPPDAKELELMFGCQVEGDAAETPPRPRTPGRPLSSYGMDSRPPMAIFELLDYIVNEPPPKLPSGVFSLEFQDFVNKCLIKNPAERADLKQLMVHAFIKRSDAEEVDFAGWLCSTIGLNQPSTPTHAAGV
Chain of Tyrosine-protein kinase Lyn (Homo sapiens) (P07948 2-512 limits assumed): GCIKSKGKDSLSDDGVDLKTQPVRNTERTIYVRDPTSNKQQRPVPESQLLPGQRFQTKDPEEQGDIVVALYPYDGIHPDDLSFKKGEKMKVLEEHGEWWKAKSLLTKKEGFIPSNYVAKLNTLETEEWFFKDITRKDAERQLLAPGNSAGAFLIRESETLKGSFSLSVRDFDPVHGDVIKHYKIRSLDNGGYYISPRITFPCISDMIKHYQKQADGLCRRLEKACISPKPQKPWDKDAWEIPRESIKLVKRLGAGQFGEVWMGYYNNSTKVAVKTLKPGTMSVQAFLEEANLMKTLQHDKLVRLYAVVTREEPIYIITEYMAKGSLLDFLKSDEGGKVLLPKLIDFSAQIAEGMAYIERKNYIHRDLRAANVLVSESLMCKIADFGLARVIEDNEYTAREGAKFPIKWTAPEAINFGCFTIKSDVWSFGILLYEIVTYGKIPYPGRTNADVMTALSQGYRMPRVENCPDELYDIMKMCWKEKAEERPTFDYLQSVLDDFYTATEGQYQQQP
Chain of Ephrin type-A receptor 3 (Homo sapiens) (P29320 whole entry, the tested form may be a part): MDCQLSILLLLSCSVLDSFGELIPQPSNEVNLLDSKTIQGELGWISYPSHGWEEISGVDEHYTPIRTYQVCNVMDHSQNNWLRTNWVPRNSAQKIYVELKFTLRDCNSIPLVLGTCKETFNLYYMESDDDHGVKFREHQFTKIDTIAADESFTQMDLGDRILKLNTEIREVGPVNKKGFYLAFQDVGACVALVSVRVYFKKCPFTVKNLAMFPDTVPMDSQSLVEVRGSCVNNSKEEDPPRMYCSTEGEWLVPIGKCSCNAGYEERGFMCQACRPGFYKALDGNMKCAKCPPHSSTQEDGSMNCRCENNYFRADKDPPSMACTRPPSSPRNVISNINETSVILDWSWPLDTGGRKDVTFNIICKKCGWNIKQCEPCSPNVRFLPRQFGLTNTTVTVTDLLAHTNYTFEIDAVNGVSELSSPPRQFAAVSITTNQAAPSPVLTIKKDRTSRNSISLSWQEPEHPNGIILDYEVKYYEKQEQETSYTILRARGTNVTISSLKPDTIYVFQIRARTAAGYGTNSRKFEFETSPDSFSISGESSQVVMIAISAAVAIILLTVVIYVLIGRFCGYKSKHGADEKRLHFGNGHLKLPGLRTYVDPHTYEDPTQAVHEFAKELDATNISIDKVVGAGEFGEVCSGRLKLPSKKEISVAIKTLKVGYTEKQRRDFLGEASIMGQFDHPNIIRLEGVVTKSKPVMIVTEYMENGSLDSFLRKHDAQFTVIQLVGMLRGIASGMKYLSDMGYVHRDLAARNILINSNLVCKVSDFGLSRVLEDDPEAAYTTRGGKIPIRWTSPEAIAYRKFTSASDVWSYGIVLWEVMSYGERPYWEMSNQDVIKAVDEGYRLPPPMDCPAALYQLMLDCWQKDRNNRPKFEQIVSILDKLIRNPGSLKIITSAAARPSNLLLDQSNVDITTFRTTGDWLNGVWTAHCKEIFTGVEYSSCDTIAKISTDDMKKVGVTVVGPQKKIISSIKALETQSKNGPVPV
Chain of Dual specificity mitogen-activated protein kinase kinase 4 (Homo sapiens) (P45985 whole entry, the tested form may be a part): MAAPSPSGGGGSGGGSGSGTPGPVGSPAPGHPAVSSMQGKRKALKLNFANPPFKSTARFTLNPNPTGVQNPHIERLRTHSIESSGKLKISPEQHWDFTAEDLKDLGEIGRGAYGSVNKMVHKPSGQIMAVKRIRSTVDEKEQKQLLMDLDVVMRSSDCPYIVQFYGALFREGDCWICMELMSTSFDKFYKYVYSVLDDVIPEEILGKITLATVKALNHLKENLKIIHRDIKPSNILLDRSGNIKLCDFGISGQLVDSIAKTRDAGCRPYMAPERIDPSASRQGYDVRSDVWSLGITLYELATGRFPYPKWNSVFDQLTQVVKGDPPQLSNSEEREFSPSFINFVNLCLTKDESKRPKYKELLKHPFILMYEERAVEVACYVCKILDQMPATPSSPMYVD
Chain of Tyrosine-protein kinase Tec (Homo sapiens) (P42680 whole entry, the tested form may be a part): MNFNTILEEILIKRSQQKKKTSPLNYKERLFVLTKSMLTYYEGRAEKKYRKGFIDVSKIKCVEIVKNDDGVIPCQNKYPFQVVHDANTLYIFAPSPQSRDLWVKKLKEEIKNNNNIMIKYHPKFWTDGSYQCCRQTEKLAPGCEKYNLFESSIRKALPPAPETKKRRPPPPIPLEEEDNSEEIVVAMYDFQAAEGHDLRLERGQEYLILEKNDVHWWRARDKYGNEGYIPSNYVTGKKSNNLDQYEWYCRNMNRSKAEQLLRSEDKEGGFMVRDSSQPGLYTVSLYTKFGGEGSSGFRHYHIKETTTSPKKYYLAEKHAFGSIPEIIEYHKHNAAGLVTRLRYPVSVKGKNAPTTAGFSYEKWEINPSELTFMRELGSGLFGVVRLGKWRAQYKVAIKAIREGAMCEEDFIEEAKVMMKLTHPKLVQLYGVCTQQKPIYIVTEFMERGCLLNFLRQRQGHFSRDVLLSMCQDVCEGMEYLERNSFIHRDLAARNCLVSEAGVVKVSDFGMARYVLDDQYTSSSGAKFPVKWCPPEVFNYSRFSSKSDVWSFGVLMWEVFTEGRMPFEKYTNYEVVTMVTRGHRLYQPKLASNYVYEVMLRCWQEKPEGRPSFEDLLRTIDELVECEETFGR
Chain of Calcium-dependent protein kinase 1 (Plasmodium falciparum) (P62344 2-524 limits assumed): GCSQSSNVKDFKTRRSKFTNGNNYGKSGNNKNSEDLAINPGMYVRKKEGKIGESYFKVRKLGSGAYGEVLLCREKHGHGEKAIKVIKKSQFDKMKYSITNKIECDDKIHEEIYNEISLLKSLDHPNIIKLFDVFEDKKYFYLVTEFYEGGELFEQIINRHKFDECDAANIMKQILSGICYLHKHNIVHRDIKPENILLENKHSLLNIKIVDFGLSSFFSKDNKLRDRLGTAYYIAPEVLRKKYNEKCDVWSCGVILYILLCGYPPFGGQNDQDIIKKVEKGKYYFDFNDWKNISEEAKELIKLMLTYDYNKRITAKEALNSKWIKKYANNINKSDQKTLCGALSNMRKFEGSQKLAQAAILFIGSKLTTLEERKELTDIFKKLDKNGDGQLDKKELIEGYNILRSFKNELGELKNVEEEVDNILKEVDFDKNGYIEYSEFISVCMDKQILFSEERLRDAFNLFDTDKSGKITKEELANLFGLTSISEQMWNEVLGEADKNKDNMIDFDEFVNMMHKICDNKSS
Chain of Cyclin-dependent kinase 5 (Homo sapiens) (Q00535 whole entry, looked up, the tested form may be a part): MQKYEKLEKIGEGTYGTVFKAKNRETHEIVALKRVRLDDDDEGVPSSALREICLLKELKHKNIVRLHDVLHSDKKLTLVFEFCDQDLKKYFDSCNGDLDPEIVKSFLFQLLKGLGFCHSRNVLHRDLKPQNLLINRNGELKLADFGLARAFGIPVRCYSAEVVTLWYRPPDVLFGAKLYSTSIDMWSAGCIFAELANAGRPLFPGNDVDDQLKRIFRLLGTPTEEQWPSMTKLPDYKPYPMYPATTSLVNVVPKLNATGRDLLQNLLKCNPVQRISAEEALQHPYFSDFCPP

With `CC(C)N1C(=O)C(NCCCN(C)C)=C(c2cn(C)c3ccccc23)C1=O.Cl` the Activity [1] was 99%, the Activity [2] was 84% and the Stability [3] was “Stable”. For the same compound, the Activity [4] was 74%, the Activity [5] was 74% and the Activity [6] was 100%. The Activity [7] was 94%, the Activity [8] was “inactive” and the Activity [9] was 98%. For the same compound, the Activity [10] was 67%, the inhibition [11] was “inactive” and the Activity [12] was 83%. For the same compound, the Activity [13] was 99%, the Activity [14] was 100% and the Activity [15] was 100%. It also gave an Activity [16] of 87%, an Activity [17] of 96% and an Activity [18] of 100%. The Activity [19] was 97%, the Activity [20] was 100% and the Activity [21] was 87%. For the same compound, the Activity [22] was 80%, the Activity [23] was 91% and the Activity [24] was 81%. It also gave an Activity [25] of 88%.
